Test results: article PMC8097242, “Galectin-4 N-Terminal Domain: Binding Preferences Toward A and B Antigens With Different Peripheral Core Presentations” (Frontiers in Chemistry, 2021)

Columns and labels:
Format in all cases: binding
[1] = biological target: T1, N-terminal CRD of hGalectin-4 (Gal-4N) (Homo sapiens, UniProt P56470); test: 1H-15N HSQC NMR-based titrations (chemical shift perturbation) of 15N-labeled Gal-4N; conditions: for Kd: HSQC NMR-based titration, 50 μM 15N-labeled lectin, 298 K, read-out: KD (μM) (NMR)
T1 construct: N-terminal CRD of hGalectin-4 (amino acids 1–150, including an additional C-terminus His-Tag); His-Tag (C, cleaved yes); made in house; host or cells: E. coli BL21 (pET29b)
T1 sequence (P56470 1-150): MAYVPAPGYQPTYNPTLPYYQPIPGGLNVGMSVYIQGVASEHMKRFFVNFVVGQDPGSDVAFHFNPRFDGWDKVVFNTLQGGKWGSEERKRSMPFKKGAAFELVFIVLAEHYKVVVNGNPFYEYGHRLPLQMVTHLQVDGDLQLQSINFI
Procedure: The molecular recognition event was also analyzed from the perspective of the lectin. Thus, a chemical shift perturbation (CSP) analysis of the changes produced in the ^1H-^15N HSQC spectra recorded for ^15N-labeled Gal-4N upon addition of the different ligands was carried out. This analysis required the NH backbone NMR assignment of the lectin signals, following well-established triple resonance 3D NMR methods (see Materials and methods and Supplementary Information). The assignment protocol allowed assigning 80% of the NH backbone resonances. In addition to the ligands shown in Scheme 1, the corresponding non-fucosylated analogs and the H antigens (devoid of the terminal Gal/GalNAc moieties, see Supplementary Information), as well as lactose, were also employed. Thus, a full comparative analysis on the monosaccharide-specific effects on the lectin CSP was achieved.
The total volume for the NMR samples was 500/μl. The lectin was in phosphate-buffered saline (50 mM sodium phosphate, 150 mM NaCl, pH 7.4), either in D2O or 90:10 H2O:D2O depending on the NMR experiment. The pH was adjusted with the required amount of NaOH and HCl or NaOD and DCl.
experiments were acquired using an 800 MHz Bruker spectrometer with a cryoprobe (Bruker, Billerica, MA, United States). The samples were prepared using 50 μM of the ^15N-labeled lectin in the corresponding buffer in a 90:10 H2O:D2O ratio. The experiments were performed at 298 K. Six to nine points were recorded for each ligand and CSP and KD were calculated using CcpNmr Analysis 2.4.2.

[2] = biological target: T1, N-terminal CRD of hGalectin-4 (Gal-4N); test: Isothermal titration calorimetry (ITC); conditions: for increased affinity of type-6 vs corresponding type-2 antigen: Glc vs GlcNAc at reducing end, β1–4 linked; for Kd: PBS pH 7.4, single binding site model
Procedure: Isothermal titration calorimetry experiments were performed using the MicroCal PEAQ-ITC calorimeter (Malvern Panalytical, Malvern, United Kingdom). Samples containing 100–200 μM of Gal-4N in PBS (50 mM sodium phosphate, pH 7.4, 300 mM NaCl) were titrated with stocks of 3–10 mM in PBS of glycans 4, 5, 7, 8, 9, and 11. During the automated experiment, small aliquots (2–3 μL) of the sugar stocks were added to the cell containing the lectin. Curve fitting to a single binding site model was performed with the MicroCal Origin 7 software.
Isothermal titratrion calorimetry (ITC). Isothermal Titration Calorimetry experiments were performed using MicroCal PEAQ-ITC calorimeter. Samples containing 100-200 µM of Gal-4N in PBS (50 mM sodium phosphate pH 7.4, 300 mM NaCl) were titrated with stocks of 3-10 mM in PBS of glycans A type 1, A type 2, A type 6, B type 1, B type 2 and B type 6. During the automated experiment, small aliquots (2-3 µL) of the sugar stocks were added to the cell containing the lectin. The association constants and the thermodynamic profile of the binding was calculated from the fitting of the titration data to a single binding site model.

[3] = biological target: T1, N-terminal CRD of hGalectin-4 (Gal-4N); test: 1H Saturation Transfer Difference (STD) NMR epitope mapping
Procedure: ^1H-saturation transfer difference NMR spectra were acquired for mixtures of Gal-4N (50 μM) with a 50-fold excess of ligand. Protein aromatic irradiation afforded the best STD intensities and thus these are discussed henceforth. The STD NMR spectra were very similar among the different ligands with respect to both the observed glycan protons and their intensities. […] Severe proton overlapping precluded a full comparison among ligands, but key isolated ^1H NMR resonance signals permitted to highlight evident differences.
All the STD NMR experiments were performed using an 800 MHz Bruker spectrometer with a cryoprobe (Bruker, Billerica, MA, United States). The samples were prepared in the corresponding deuterated buffer. The temperature was 288 K for every experiment. An amount of 50 μM of the lectin with 50 equivalents of the ligand was employed for every experiment except for lactose, for which a 1:70 ratio was used. The STD spectra were acquired with 1,024 scans, 2 s of saturation time using a train of 50 ms Gaussian-shaped pulses, and 3 s of relaxation delay. The spin-lock filter applied to remove the signals of the lectin was set at 40 ms. The on-resonance frequency was set for the aromatic region at 6.58 ppm, while the off-resonance frequency was set at 100 ppm.
Supplementary Table S1. Relative STD-AF (Amplification factor) and STD percentage of each non overlapping proton of each ligand.

[4] = 1H-residue H4GalNAc (terminal, A type 6)
[5] = 1H-residue NHAcGlcNAc (B type 1: first of two lines)
[6] = 1H-residue NHAcGlcNAc (B type 1: second of two lines)

Compound	Kd [1]	-TΔS (kcal mol^–1) (ITC) [2]	ΔG (kcal mol^–1) (ITC) [2]	ΔH (kcal mol^–1) (ITC) [2]	increased affinity of type-6 vs corresponding type-2 antigen [2]	Kd [2]	STD% ([3]; 1H-residue H1 Fuc)	STD-AF ([3]; 1H-residue H1 Fuc)	STD% ([3]; 1H-residue H1Galβ)	STD-AF ([3]; 1H-residue H1Galβ)	STD% ([3]; 1H-residue H2Glca / H2Glcα)	STD-AF ([3]; 1H-residue H2Glca / H2Glcα)	STD% ([3]; 1H-residue H2Glcb / H2Glcβ)	STD-AF ([3]; 1H-residue H2Glcb / H2Glcβ)	STD% ([3]; 1H-residue H4Galβ)	STD-AF ([3]; 1H-residue H4Galβ)	STD% ([3]; 1H-residue H5Galβ)	STD-AF ([3]; 1H-residue H5Galβ)	STD% ([3]; 1H-residue MetFuc)	STD-AF ([3]; 1H-residue MetFuc)	further results
CC(=O)NC1C(OC2C(O)C(CO)OC(OC3C(CO)OC(O)C(O)C3O)C2OC2OC(C)C(O)C(O)C2O)OC(CO)C(O)C1O (stereo not shown) [A type-6 (tetra)]	150 µM	2.9 kcal mol^–1	−5.6 kcal mol^–1	−8.5 kcal mol^–1	two-fold	86 µM	13%	0.0020	58%	0.0091	34%	0.0054	30%	0.0048	60%	0.0095	100%	0.0158	10%	0.0016	STD% ([3]; 1H-residue H1GalNAc): 82%; STD-AF ([3]; 1H-residue H1GalNAc, 50:1 ligand:lectin, 288 K): 0.0129; STD% ([3]; 1H-residue H1Glca): 21%; STD-AF ([3]; 1H-residue H1Glca): 0.0033; STD% ([3]; 1H-residue H1Glcb): 18%; STD-AF ([3]; 1H-residue H1Glcb): 0.0028; STD% ([3]; 1H-residue H2GalNAc): 51%; STD-AF ([3]; 1H-residue H2GalNAc): 0.0081; STD% ([3]; 1H-residue H3Galβ): 39%; STD-AF ([3]; 1H-residue H3Galβ): 0.0061; STD% ([3]; 1H-residue H3Glcb / H3Glcβ): 32%; STD-AF ([3]; 1H-residue H3Glcb / H3Glcβ): 0.0050; STD% [3, 4]: 16%; STD-AF [3, 4]: 0.0025; STD% ([3]; 1H-residue NHAc GalNAc): 100%; STD-AF ([3]; 1H-residue NHAc GalNAc): 0.0158
CC1OC(OC2C(OC3C(CO)OC(O)C(O)C3O)OC(CO)C(O)C2OC2OC(CO)C(O)C(O)C2O)C(O)C(O)C1O (stereo not shown) [B type-6 (tetra)]	60 µM	6.4 kcal mol^–1	−5.9 kcal mol^–1	−12.3 kcal mol^–1	two-fold	51 µM	28%	0.0105	80%	0.0298	39%	0.0146	36%	0.0135	82%	0.0307	100%	0.0374	20%	0.0074	fold range of NMR-based binding affinities, best vs worse binder ([1]; B-type 6 vs A-type 4): 20 fold; binding enthalpy [2]: -12.3 kcal/mol; fold difference in affinity of the best binder ([2]; among tetrasaccharides of Figure 6 (ITC)): 5 fold; STD% ([3]; 1H-residue H1Galα): 74%; STD-AF ([3]; 1H-residue H1Galα): 0.0276; STD% ([3]; 1H-residue H2Galα): 38%; STD-AF ([3]; 1H-residue H2Galα): 0.0142; STD% ([3]; 1H-residue H2Galβ): 34%; STD-AF ([3]; 1H-residue H2Galβ): 0.0129; STD% ([3]; 1H-residue H3Galβ): 29%; STD-AF ([3]; 1H-residue H3Galβ): 0.0108; STD% ([3]; 1H-residue H3Glcb / H3Glcβ): 46%; STD-AF ([3]; 1H-residue H3Glcb / H3Glcβ): 0.0172; STD% ([3]; 1H-residue H5Glcβ): 44%; STD-AF ([3]; 1H-residue H5Glcβ): 0.0163
CC(=O)N[C@@H]1[C@@H](O[C@@H]2O[C@H](CO)[C@H](O)[C@H](O[C@H]3O[C@H](CO)[C@H](O)[C@H](O)[C@H]3O)[C@H]2O[C@@H]2O[C@@H](C)[C@@H](O)[C@@H](O)[C@@H]2O)[C@H](O)[C@@H](CO)O[C@H]1O [B type-1 (tetra)]	200 µM	2.3 kcal mol^–1	−5.4 kcal mol^–1	−7.7 kcal mol^–1		109 µM	0%	0.0000	70%	0.0066					74%	0.0070	100%	0.0094	14%	0.0013	STD% ([3]; 1H-residue H1Galα): 56%; STD-AF ([3]; 1H-residue H1Galα): 0.0053; STD% ([3]; 1H-residue H1GlcNAc): 16%; STD-AF ([3]; 1H-residue H1GlcNAc): 0.0015; STD% ([3]; 1H-residue H2Galα): 35%; STD-AF ([3]; 1H-residue H2Galα): 0.0033; STD% ([3]; 1H-residue H2GlcNAc): 29%; STD-AF ([3]; 1H-residue H2GlcNAc): 0.0027; STD% ([3]; 1H-residue H3GlcNAc): 38%; STD-AF ([3]; 1H-residue H3GlcNAc): 0.0036; STD% ([3]; 1H-residue H4GlcNAc): 53%; STD-AF ([3]; 1H-residue H4GlcNAc): 0.0050; STD% ([3]; 1H-residue H5Galα): 23%; STD-AF ([3]; 1H-residue H5Galα): 0.0022; STD% [3, 5]: 141%; STD-AF [3, 5]: 0.0133; STD% [3, 6]: 59%; STD-AF [3, 6]: 0.0055; STD% ([3]; Average NHAc): 100%; STD-AF ([3]; Average NHAc): 0.0094
